Laboratory results from PubChem BioAssay (NCI).
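These data come from cells grown in 96-well plates and exposed to compound for 48 hours at five concentrations. TGI denotes the concentration required for complete inhibition of growth.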

What was measured:
Experiment in all cases: NCI anticancer screen, dose series, 48 h
[1] = tested on: 786-0 renal
[2] = tested on: A498 renal
[3] = tested on: A549 NSCLC
[4] = tested on: ACHN renal
[5] = tested on: BT-549 breast
[6] = tested on: CAKI-1 renal
[7] = tested on: CCRF-CEM leukemia
[8] = tested on: COLO 205 colon
[9] = tested on: DU-145 prostate
[10] = tested on: EKVX NSCLC
[11] = tested on: HCT-116 colon
[12] = tested on: HCT-15 colon
[13] = tested on: HL-60(TB) leukemia
[14] = tested on: HOP-62 NSCLC
[15] = tested on: HOP-92 NSCLC
[16] = tested on: HS 578T breast
[17] = tested on: HT29 colon
[18] = tested on: IGROV1 ovarian
[19] = tested on: K-562 leukemia
[20] = tested on: KM12 colon
[21] = tested on: LOX IMVI melanoma
[22] = tested on: M14 melanoma
[23] = tested on: MALME-3M melanoma
[24] = tested on: MCF7 breast
[25] = tested on: MDA-MB-231 breast
[26] = tested on: MDA-MB-435
[27] = tested on: MDA-N
[28] = tested on: MOLT-4 leukemia
[29] = tested on: NCI-H226 lung
[30] = tested on: NCI-H23 lung
[31] = tested on: NCI-H460 lung
[32] = tested on: NCI-H522 lung
[33] = tested on: NCI/ADR-RES ovarian
[34] = tested on: OVCAR-3 ovarian
[35] = tested on: OVCAR-4 ovarian
[36] = tested on: OVCAR-5 ovarian
[37] = tested on: OVCAR-8 ovarian
[38] = tested on: PC-3 prostate
[39] = tested on: RPMI-8226 leukemia
[40] = tested on: RXF 393 renal
[41] = tested on: SF-268 CNS
[42] = tested on: SF-295 CNS
[43] = tested on: SF-539 CNS
[44] = tested on: SK-MEL-2 melanoma
[45] = tested on: SK-MEL-28 melanoma
[46] = tested on: SK-MEL-5 melanoma
[47] = tested on: SK-OV-3 ovarian
[48] = tested on: SN12C renal
[49] = tested on: SNB-19 CNS
[50] = tested on: SNB-75 CNS
[51] = tested on: SR leukemia
[52] = tested on: SW-620 colon
[53] = tested on: T-47D breast
[54] = tested on: TK-10 renal
[55] = tested on: U251 CNS
[56] = tested on: UACC-257 melanoma
[57] = tested on: UO-31 renal
[58] = tested on: HCC-2998 colon
[59] = tested on: UACC-62 melanoma

CN(C)c1ccc(C=Nc2ccc(-c3nc4ccccc4[nH]3)cc2)cc1
TGI [1]: > 100 µM | TGI [2]: > 100 µM | TGI [3]: > 100 µM | TGI [4]: > 100 µM | TGI [5]: 88.8 µM | TGI [6]: > 100 µM | TGI [7]: > 100 µM | TGI [8]: > 100 µM | TGI [9]: > 100 µM | TGI [10]: > 100 µM | TGI [11]: > 100 µM | TGI [12]: > 100 µM | TGI [13]: 53.3 µM | TGI [14]: > 100 µM | TGI [15]: > 100 µM | TGI [16]: > 100 µM | TGI [17]: > 100 µM | TGI [18]: > 100 µM | TGI [19]: > 100 µM | TGI [20]: > 100 µM | TGI [21]: > 100 µM | TGI [22]: > 100 µM | TGI [23]: > 100 µM | TGI [24]: > 100 µM | TGI [25]: > 100 µM | TGI [26]: > 100 µM | TGI [27]: > 100 µM | TGI [28]: > 100 µM | TGI [29]: > 100 µM | TGI [30]: > 100 µM | TGI [31]: > 100 µM | TGI [32]: > 100 µM | TGI [33]: 27.7 µM | TGI [34]: > 100 µM | TGI [35]: > 100 µM | TGI [36]: > 100 µM | TGI [37]: > 100 µM | TGI [38]: > 100 µM | TGI [39]: > 100 µM | TGI [40]: 80 µM | TGI [41]: > 100 µM | TGI [42]: > 100 µM | TGI [43]: > 100 µM | TGI [44]: > 100 µM | TGI [45]: > 100 µM | TGI [46]: > 100 µM | TGI [47]: > 100 µM | TGI [48]: > 100 µM | TGI [49]: > 100 µM | TGI [50]: > 100 µM | TGI [51]: 65.1 µM | TGI [52]: > 100 µM | TGI [53]: > 100 µM | TGI [54]: > 100 µM | TGI [55]: > 100 µM | TGI [56]: > 100 µM | TGI [57]: > 100 µM

CN(C)c1ccc(C=Nc2ccc(Oc3ccc(Cl)cc3)c(Cl)c2)cc1
TGI [3]: 53.4 µM | TGI [4]: 79.6 µM | TGI [5]: 44.1 µM | TGI [6]: 67.2 µM | TGI [7]: 57.7 µM | TGI [8]: 45.2 µM | TGI [9]: 79 µM | TGI [10]: 40.8 µM | TGI [58]: 38.9 µM | TGI [11]: 34.5 µM | TGI [12]: 41.7 µM | TGI [13]: 40.1 µM | TGI [14]: 51.8 µM | TGI [15]: 36.1 µM | TGI [16]: 33.2 µM | TGI [17]: 29.6 µM | TGI [18]: 85.1 µM | TGI [20]: 34.2 µM | TGI [21]: 47.6 µM | TGI [22]: 87.1 µM | TGI [23]: 36.8 µM | TGI [24]: > 100 µM | TGI [25]: 38.5 µM | TGI [26]: > 100 µM | TGI [27]: 52.8 µM | TGI [28]: 66.3 µM | TGI [29]: 63.4 µM | TGI [30]: 39.9 µM | TGI [31]: 42.1 µM | TGI [32]: 31.4 µM | TGI [33]: 33.2 µM | TGI [34]: 32.4 µM | TGI [35]: 66.4 µM | TGI [36]: > 100 µM | TGI [37]: 36.8 µM | TGI [38]: 36.2 µM | TGI [39]: 72.3 µM | TGI [41]: 28.1 µM | TGI [42]: 50.9 µM | TGI [43]: 39.8 µM | TGI [44]: 37.4 µM | TGI [45]: 48.6 µM | TGI [46]: 33.4 µM | TGI [47]: 55.9 µM | TGI [48]: 43.6 µM | TGI [49]: 41.3 µM | TGI [50]: 35.6 µM | TGI [51]: 32.9 µM | TGI [52]: > 100 µM | TGI [53]: 75.3 µM | TGI [54]: > 100 µM | TGI [55]: 34.7 µM | TGI [56]: 44.6 µM | TGI [59]: 36.1 µM | TGI [57]: 22.9 µM

Nc1ccc2c(O)cc(=O)[nH]c2n1
TGI [1]: > 100 µM | TGI [3]: > 100 µM | TGI [4]: > 100 µM | TGI [5]: > 100 µM | TGI [6]: > 100 µM | TGI [8]: > 100 µM | TGI [9]: > 100 µM | TGI [10]: > 100 µM | TGI [11]: > 100 µM | TGI [12]: > 100 µM | TGI [13]: > 100 µM | TGI [15]: > 100 µM | TGI [16]: > 100 µM | TGI [17]: > 100 µM | TGI [18]: > 100 µM | TGI [19]: > 100 µM | TGI [20]: > 100 µM | TGI [22]: > 100 µM | TGI [23]: > 100 µM | TGI [24]: > 100 µM | TGI [25]: > 100 µM | TGI [26]: > 100 µM | TGI [27]: > 100 µM | TGI [28]: > 100 µM | TGI [29]: > 100 µM | TGI [30]: > 100 µM | TGI [31]: > 100 µM | TGI [32]: > 100 µM | TGI [33]: > 100 µM | TGI [35]: > 100 µM | TGI [36]: > 100 µM | TGI [37]: > 100 µM | TGI [38]: > 100 µM | TGI [39]: > 100 µM | TGI [40]: > 100 µM | TGI [41]: > 100 µM | TGI [42]: > 100 µM | TGI [43]: > 100 µM | TGI [44]: > 100 µM | TGI [45]: > 100 µM | TGI [46]: > 100 µM | TGI [47]: > 100 µM | TGI [48]: > 100 µM | TGI [49]: > 100 µM | TGI [50]: > 100 µM | TGI [51]: > 100 µM | TGI [52]: > 100 µM | TGI [53]: > 100 µM | TGI [54]: > 100 µM | TGI [55]: > 100 µM | TGI [56]: > 100 µM | TGI [59]: > 100 µM | TGI [57]: > 100 µM

CN(C)CCCc1cccc2[nH]c3c(c12)CN(C)CC3
TGI [1]: > 100 µM | TGI [3]: > 100 µM | TGI [4]: > 100 µM | TGI [5]: > 100 µM | TGI [6]: > 100 µM | TGI [7]: > 100 µM | TGI [8]: > 100 µM | TGI [9]: > 100 µM | TGI [10]: > 100 µM | TGI [58]: > 100 µM | TGI [11]: > 100 µM | TGI [12]: > 100 µM | TGI [13]: > 100 µM | TGI [14]: > 100 µM | TGI [15]: > 100 µM | TGI [16]: > 100 µM | TGI [17]: > 100 µM | TGI [18]: > 100 µM | TGI [19]: > 100 µM | TGI [20]: > 100 µM | TGI [21]: > 100 µM | TGI [22]: 33.9 µM | TGI [23]: > 100 µM | TGI [24]: > 100 µM | TGI [25]: > 100 µM | TGI [26]: > 100 µM | TGI [27]: > 100 µM | TGI [28]: > 100 µM | TGI [29]: > 100 µM | TGI [30]: > 100 µM | TGI [31]: > 100 µM | TGI [32]: > 100 µM | TGI [33]: > 100 µM | TGI [34]: > 100 µM | TGI [35]: > 100 µM | TGI [36]: > 100 µM | TGI [37]: > 100 µM | TGI [38]: > 100 µM | TGI [39]: > 100 µM | TGI [40]: > 100 µM | TGI [41]: > 100 µM | TGI [42]: > 100 µM | TGI [43]: > 100 µM | TGI [44]: > 100 µM | TGI [45]: > 100 µM | TGI [46]: > 100 µM | TGI [47]: > 100 µM | TGI [48]: > 100 µM | TGI [49]: > 100 µM | TGI [50]: > 100 µM | TGI [51]: 74.3 µM | TGI [52]: > 100 µM | TGI [53]: > 100 µM | TGI [54]: > 100 µM | TGI [55]: > 100 µM | TGI [56]: > 100 µM | TGI [59]: > 100 µM | TGI [57]: > 100 µM
